MIC data for nine compounds are collected here from publication PMC11619344 (Antimicrobial Agents and Chemotherapy, 2024).

Usually MIC stands for the smallest concentration in the dilution series that meets the test's criterion for growth inhibition.

Structures are written as SMILES. ≈ marks a conversion by molar mass, not a printed value. A value given as a limit tells only on which side of the number the result lay.

Holding throughout (format): cell-based
Experiment [1] concerns K. pneumoniae ST512/KPC-31 (KPC-3 D179Y) parental clinical isolate. Briefly: MIC, broth microdilution. The note with it: Klebsiella pneumoniae. On the technique in general: In broth dilution the organism is exposed to a series of concentrations in liquid medium.
Experiment [2] relates to ST512/KPC-31 mutant IMI 1.1. The experiment is described as follows: MIC, broth microdilution. The note with it: Klebsiella pneumoniae.
Experiment [3] has as its system ST512/KPC-31 mutant IMI 1.2. The experiment is described as follows: MIC, broth microdilution. The note with it: Klebsiella pneumoniae.
Experiment [4] relates to ST512/KPC-31 mutant IMI 2.1. Briefly: MIC, broth microdilution. The note with it: Klebsiella pneumoniae.
Experiment [5] deals with ST512/KPC-31 mutant IMI 2.2. Briefly: MIC, broth microdilution. The note with it: Klebsiella pneumoniae.
In experiment [6] the test system is ST512/KPC-31 mutant IMI 3.1. The experiment is described as follows: MIC, broth microdilution. The note with it: Klebsiella pneumoniae.
Experiment [7] has as its system ST512/KPC-31 mutant IMI 3.2. Briefly: MIC, broth microdilution. The note with it: Klebsiella pneumoniae.
Experiment [8] has as its system K. pneumoniae ST258/KPC-35 (KPC-2 L169P) parental clinical isolate. The experiment is described as follows: MIC, broth microdilution. The note with it: Klebsiella pneumoniae.
Experiment [9] deals with ST258/KPC-35 mutant IMI 1.1. Briefly: MIC, broth microdilution. The note with it: Klebsiella pneumoniae.
In experiment [10] the test system is ST258/KPC-35 mutant IMI 1.2. Briefly: MIC, broth microdilution. The note with it: Klebsiella pneumoniae.
In experiment [11] the test system is ST258/KPC-35 mutant IMI 2.1. Briefly: MIC, broth microdilution. The note with it: Klebsiella pneumoniae.
Experiment [12] relates to ST258/KPC-35 mutant IMI 2.2. Briefly: MIC, broth microdilution. The note with it: Klebsiella pneumoniae.
Experiment [13] deals with ST258/KPC-35 mutant IMI 3.1. Briefly: MIC, broth microdilution. The note with it: Klebsiella pneumoniae.
In experiment [14] the test system is ST258/KPC-35 mutant IMI 3.2. The experiment is described as follows: MIC, broth microdilution. The note with it: Klebsiella pneumoniae.
For another experiment, the system named is E. coli HB4 KPC-2 L169A. The experiment is described as follows: MIC of recombinant strains. The note with it: Escherichia coli, HB4KPC2L169A; E. coli HB4 expressing KPC-2 L169A in pUCP24. As to the method: (§1) 14.0 (www.eucast.org/clinical_breakpoints).
(§2) Recombinant strains were selected in 10 mg/L of gentamicin-LB agar plates. The β-lactam MICs were determined for the transformants according to the above-described methodology.

A further experiment has as its system E. coli HB4 KPC-2 L169T. The experiment is described as follows: MIC of recombinant strains. The note with it: Escherichia coli, HB4KPC2L169T; E. coli HB4 expressing KPC-2 L169T in pUCP24. As to the method: as §1, §2
Another experiment relates to E. coli HB4 KPC-2. Briefly: MIC of recombinant strains. The note with it: Escherichia coli, HB4KPC2; E. coli HB4 expressing KPC-2 in pUCP24. The procedure: as §1, §2
Another experiment relates to E. coli HB4 KPC-3 D179N. Briefly: MIC of recombinant strains. The note with it: Escherichia coli, HB4KPC3D179N; E. coli HB4 expressing KPC-3 D179N in pUCP24. The procedure: as §1, §2
The subject of experiment [15] is E. coli HB4 KPC-31 (KPC-3 D179Y). Briefly: MIC of recombinant strains. The note with it: Escherichia coli; E. coli HB4 expressing KPC-31 (KPC-3 D179Y) in pUCP24. The procedure:
as §1, §2

In experiment [16] the test system is E. coli HB4 KPC-35 (KPC-2 L169P). Briefly: MIC of recombinant strains. The note with it: Escherichia coli; E. coli HB4 expressing KPC-35 (KPC-2 L169P) in pUCP24. As to the method:
as §1, §2

In the next experiment the test system is E. coli HB4 KPC-3. Briefly: MIC of recombinant strains. The note with it: Escherichia coli, HB4KPC3; E. coli HB4 expressing KPC-3 in pUCP24. The procedure: as §1, §2
For the next experiment, the system named is E. coli HB4. The experiment is described as follows: MIC of recombinant strains. The note with it: Escherichia coli; E. coli HB4 (OmpC- and OmpF-deficient), no KPC. As to the method: as §1, §2

In the case of `C[C@@H](O)[C@H]1C(=O)N2C(C(=O)O)=C(S[C@@H]3CN[C@H](C(=O)Nc4cccc(C(=O)O)c4)C3)[C@H](C)[C@H]12` [ETP, ertapenem], the MIC in experiment [1], in experiment [2], in experiment [3], in [4], in experiment [5] and in experiment [6] was more than 8 µg/mL throughout. Further, the MIC in [7], in experiment [8], in experiment [9], in [10], in experiment [11] and in experiment [12] was more than 8 µg/mL in each case. Also, the MIC in experiment [13] and in experiment [14] was more than 8 µg/mL throughout.

Regarding `CC(C)(O/N=C(\C(=O)N[C@@H]1C(=O)N2C(C(=O)[O-])=C(C[n+]3ccccc3)CS[C@H]12)c1csc(N)n1)C(=O)O` [CAZ, ceftazidime], the MIC in experiment [1], in [2], in [3], in experiment [4], in experiment [5] and in [6] was more than 256 µg/mL throughout. Also, the MIC in experiment [7] is more than 256 µg/mL; in experiment [8], more than 256 µg/mL; in experiment [9], 256 µg/mL (≈ 468 µM); in [10] it was 256 µg/mL (≈ 468 µM); in experiment [11], 128 µg/mL (≈ 234 µM); in experiment [12], 128 µg/mL (≈ 234 µM). The MIC in [13] was 64 µg/mL (≈ 117 µM); in experiment [14], 128 µg/mL (≈ 234 µM); with E. coli HB4 KPC-2 L169A it was more than 64 µg/mL; in the experiment with E. coli HB4 KPC-2 L169T, more than 64 µg/mL; in the experiment with E. coli HB4 KPC-2, more than 64 µg/mL; with E. coli HB4 KPC-3 D179N, more than 64 µg/mL. The MIC in [15] is more than 64 µg/mL; in experiment [16], more than 64 µg/mL; in the experiment with E. coli HB4 KPC-3, more than 64 µg/mL; in the experiment with E. coli HB4, 1 µg/mL.

As to `C[C@@H](O)[C@H]1C(=O)N2C(C(=O)O)=C(S[C@@H]3CN[C@H](C(=O)N(C)C)C3)[C@H](C)[C@H]12` [MEM, meropenem], the MIC in [1] is 4 µg/mL (≈ 10.4 µM); in [2], more than 64 µg/mL; in experiment [3] it was more than 64 µg/mL; in [4], more than 64 µg/mL; in [5], more than 64 µg/mL; in [6] it was 32 µg/mL (≈ 83.4 µM). Besides, the MIC was 32 µg/mL (≈ 83.4 µM) in experiment [7]; 4 µg/mL (≈ 10.4 µM) in [8]; more than 64 µg/mL in experiment [9]; more than 64 µg/mL in experiment [10]; more than 64 µg/mL in experiment [11]; more than 64 µg/mL in experiment [12]. In addition, the MIC in experiment [13] was 64 µg/mL (≈ 167 µM); in [14], 64 µg/mL (≈ 167 µM); in the experiment with E. coli HB4 KPC-2 L169A, 16 µg/mL; in the experiment with E. coli HB4 KPC-2 L169T it was 16 µg/mL; in the experiment on E. coli HB4 KPC-2, more than 64 µg/mL; in the experiment on E. coli HB4 KPC-3 D179N, 0.25 µg/mL. The MIC in experiment [15] is 0.5 µg/mL; in experiment [16], 2 µg/mL; in the experiment on E. coli HB4 KPC-3 it was more than 64 µg/mL; in the experiment with E. coli HB4, not above 0.06 µg/mL.

As for `CO/N=C(\C(=O)N[C@@H]1C(=O)N2C(C(=O)[O-])=C(C[N+]3(C)CCCC3)CS[C@H]12)c1csc(N)n1` [FEP, cefepime], the MIC in experiment [2], in experiment [3], in experiment [4], in [5], in [6] and in experiment [7] was more than 16 µg/mL in each case. Further, the MIC in experiment [9], in experiment [10], in [11], in [12], in experiment [13] and in experiment [14] was more than 16 µg/mL throughout. The MIC was 64 µg/mL in the experiment on E. coli HB4 KPC-2 L169A; 128 µg/mL with E. coli HB4 KPC-2 L169T; 256 µg/mL in the experiment on E. coli HB4 KPC-2; 16 µg/mL in the experiment with E. coli HB4 KPC-3 D179N; 32 µg/mL in [15]; 64 µg/mL in experiment [16]. In addition, the MIC with E. coli HB4 KPC-3 was 128 µg/mL; in the experiment on E. coli HB4, not above 0.5 µg/mL.

Turning to `C[C@H]1[C@H](NC(=O)/C(=N\OC(C)(C)C(=O)O)c2csc(N)n2)C(=O)N1S(=O)(=O)O` [AZT, aztreonam], the MIC in [2], in experiment [3], in experiment [4], in experiment [5], in experiment [6] and in experiment [7] was more than 16 µg/mL throughout. In addition, the MIC in experiment [9], in [10], in [11], in experiment [12], in experiment [13] and in [14] was more than 16 µg/mL in each case. Moreover, the MIC came out at 64 µg/mL with E. coli HB4 KPC-2 L169A; 128 µg/mL in the experiment on E. coli HB4 KPC-2 L169T; 512 µg/mL in the experiment with E. coli HB4 KPC-2; 8 µg/mL in the experiment on E. coli HB4 KPC-3 D179N; 4 µg/mL in experiment [15]; 16 µg/mL in experiment [16]. Besides, the MIC in the experiment with E. coli HB4 KPC-3 was 256 µg/mL; in the experiment with E. coli HB4, not above 0.5 µg/mL.

For the compound `C[C@H]1COc2c(N3CCN(C)CC3)c(F)cc3c(=O)c(C(=O)O)cn1c23` [LEV, levofloxacin], the MIC in [1], in [2], in experiment [3], in [4], in experiment [5] and in experiment [6] was more than 8 µg/mL throughout. The MIC in experiment [7], in experiment [8], in experiment [9], in experiment [10], in experiment [11] and in [12] was more than 8 µg/mL throughout. Further, the MIC in [13] and in [14] was more than 8 µg/mL each time.

With `NC[C@H]1O[C@H](O[C@H]2[C@H](O)[C@@H](O[C@H]3O[C@H](CO)[C@@H](O)[C@H](N)[C@H]3O)[C@H](N)C[C@@H]2N)[C@H](N)C[C@@H]1O` [TOB, tobramycin], the MIC in [1], in experiment [2], in [3], in experiment [4], in experiment [5] and in [6] was more than 8 µg/mL throughout. Moreover, the MIC in [7], in experiment [8], in experiment [9], in experiment [10], in [11] and in [12] was more than 8 µg/mL each time. The MIC in [13] and in experiment [14] was more than 8 µg/mL throughout.

Turning to `CNC(C)C1CCC(N)C(OC2C(N)CC(N)C(OC3OCC(C)(O)C(NC)C3O)C2O)O1` (stereo not shown) [GEN, gentamicin], the MIC worked out at 4 µg/mL (≈ 8.38 µM) in experiment [1]; 4 µg/mL (≈ 8.38 µM) in experiment [2]; 8 µg/mL (≈ 16.8 µM) in [3]; 4 µg/mL (≈ 8.38 µM) in [4]; 8 µg/mL (≈ 16.8 µM) in experiment [5]; 4 µg/mL (≈ 8.38 µM) in [6]. Also, the MIC in [7] is 4 µg/mL (≈ 8.38 µM); in [8] it was not above 2 µg/mL; in experiment [9], 4 µg/mL (≈ 8.38 µM); in experiment [10] it was 4 µg/mL (≈ 8.38 µM); in [11] it was 4 µg/mL (≈ 8.38 µM); in experiment [12], 4 µg/mL (≈ 8.38 µM). Further, the MIC in experiment [13] and in [14] was 4 µg/mL (≈ 8.38 µM) in each case.

`NCC[C@H](O)C(=O)N[C@@H]1C[C@H](N)[C@@H](O[C@H]2O[C@H](CN)[C@@H](O)[C@H](O)[C@H]2O)[C@H](O)[C@H]1O[C@H]1O[C@H](CO)[C@@H](O)[C@H](N)[C@H]1O` [AMI, amikacin]: the MIC in [1], in experiment [2], in experiment [3], in experiment [4], in experiment [5] and in experiment [6] was more than 32 µg/mL throughout. The MIC in experiment [7], in experiment [8], in experiment [9], in [10], in experiment [11] and in experiment [12] was more than 32 µg/mL throughout. Besides, the MIC in experiment [13] and in [14] was more than 32 µg/mL throughout.
